From ChEMBL document CHEMBL1131790, “Structure-based design and synthesis of novel thrombin inhibitors based on phosphinic peptide mimetics” (Bioorg Med Chem Lett, 1999)

Target: Prothrombin (Homo sapiens, UniProt P00734)
Assay: In vitro inhibitory activity against thrombin

SMILES | IC50 [µM]
COc1ccc(C[C@@H](NC(=O)[C@@H](Cc2ccc3ccccc3c2)NC(=O)OCc2ccccc2)P(=O)(O)c2ccccc2)cc1 | 70
CC(=O)N[C@H](Cc1c[nH]c2ccccc12)C(=O)N[C@H](Cc1ccc(C(=N)N)cc1)P(=O)(O)c1ccccc1 | 7.5
N=C(N)c1ccc(C[C@@H](NC(=O)[C@@H](Cc2ccc3ccccc3c2)NC(=O)OCc2ccccc2)P(=O)(O)c2ccccc2)cc1 | 3.6
N=C(N)c1ccc(C[C@@H](NC(=O)[C@H](N)Cc2ccc3ccccc3c2)P(=O)(O)c2ccccc2)cc1 | 0.6
